In article PMC7659001, “The auxin-inducible degron 2 technology provides sharp degradation control in yeast, mammalian cells, and mice” (Nature Communications, 2020):
Blank lines part the entries; values can stand above or below the compound they belong to.

Legend:
Assay type in all cases: cell-based
[1] = target: T1, OsTIR1 (Oryza sativa subsp. japonica, UniProt P93830+Q7XVM8); assay: mAID-EGFP-NLS reporter degradation dose response in HCT116 cells (DC50)
T1 construct: gene Os04g0395600; with mAID degron (Arabidopsis IAA17); SCF (Skp1-Cul1)

[2] = target: T2, OsTIR1 (Oryza sativa, UniProt Q7XVM8); assay: OsTIR1(WT) level in HCT116 cells raised by the inhibitor (suppressed autodegradation)
T2 construct: gene Os04g0395600
T2 sequence (Q7XVM8 1-575): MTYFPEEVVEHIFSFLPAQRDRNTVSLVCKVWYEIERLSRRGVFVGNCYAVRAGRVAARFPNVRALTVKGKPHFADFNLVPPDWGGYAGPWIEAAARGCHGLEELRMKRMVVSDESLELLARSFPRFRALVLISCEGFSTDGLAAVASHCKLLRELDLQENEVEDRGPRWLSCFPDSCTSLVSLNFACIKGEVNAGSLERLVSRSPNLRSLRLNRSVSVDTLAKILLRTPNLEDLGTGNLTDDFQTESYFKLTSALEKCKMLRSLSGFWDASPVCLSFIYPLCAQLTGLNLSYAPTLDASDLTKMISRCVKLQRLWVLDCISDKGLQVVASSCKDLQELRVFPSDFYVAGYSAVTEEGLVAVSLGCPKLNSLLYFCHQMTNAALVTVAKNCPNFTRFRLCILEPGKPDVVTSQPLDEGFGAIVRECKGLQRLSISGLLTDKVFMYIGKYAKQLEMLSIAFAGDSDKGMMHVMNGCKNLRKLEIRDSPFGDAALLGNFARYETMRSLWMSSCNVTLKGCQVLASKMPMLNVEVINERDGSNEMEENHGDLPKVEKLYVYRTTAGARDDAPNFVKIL

[3] = target: T3, OsTIR1 (Oryza sativa subsp. japonica, UniProt P93830+Q7XVM8, Q7XVM8:F74G); assay: mAID-EGFP-NLS reporter degradation dose response in HCT116 cells (DC50)
T3 construct: gene Os04g0395600; with mAID degron (Arabidopsis IAA17); SCF (Skp1-Cul1)
T3 sequence (Q7XVM8 whole entry F74G): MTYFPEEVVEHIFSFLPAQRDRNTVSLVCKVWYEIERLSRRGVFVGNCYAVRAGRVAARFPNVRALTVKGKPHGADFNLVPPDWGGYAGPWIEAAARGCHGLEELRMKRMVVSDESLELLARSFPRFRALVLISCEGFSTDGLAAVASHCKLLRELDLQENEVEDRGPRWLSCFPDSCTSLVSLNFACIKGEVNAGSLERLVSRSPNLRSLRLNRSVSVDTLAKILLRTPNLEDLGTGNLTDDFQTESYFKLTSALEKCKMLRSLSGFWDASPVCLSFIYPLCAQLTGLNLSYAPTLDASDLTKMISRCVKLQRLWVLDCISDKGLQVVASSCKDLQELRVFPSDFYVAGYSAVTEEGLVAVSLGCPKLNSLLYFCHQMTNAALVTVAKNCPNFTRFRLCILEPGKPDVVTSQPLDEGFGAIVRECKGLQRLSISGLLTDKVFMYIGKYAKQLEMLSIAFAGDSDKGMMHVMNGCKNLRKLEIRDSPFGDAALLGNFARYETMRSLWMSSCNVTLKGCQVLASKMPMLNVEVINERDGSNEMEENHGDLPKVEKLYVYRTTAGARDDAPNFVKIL
T3 sequence (P93830 65-132 limits assumed): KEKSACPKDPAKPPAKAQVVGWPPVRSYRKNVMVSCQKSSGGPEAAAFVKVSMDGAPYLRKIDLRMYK

T1 sequence (P93830 whole entry, one chain of several): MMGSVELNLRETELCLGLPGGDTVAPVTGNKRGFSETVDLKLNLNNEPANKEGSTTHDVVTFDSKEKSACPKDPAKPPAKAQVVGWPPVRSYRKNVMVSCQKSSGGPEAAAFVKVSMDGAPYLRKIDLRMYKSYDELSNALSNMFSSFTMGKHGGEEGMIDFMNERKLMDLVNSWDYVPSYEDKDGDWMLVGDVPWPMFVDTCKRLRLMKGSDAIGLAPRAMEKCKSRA

DC50 [1]: 300 ± 30 nM
Compound: O=C(O)Cc1c[nH]c2ccccc12 [IAA, indole-3-acetic acid]

Compound: Cc1ccc(C(=O)CC(C(=O)O)c2c[nH]c3ccccc23)c(C)c1 (stereo not drawn) [auxinole]
OsTIR1(WT) level in HCT116 cells raised by the inhibitor (suppressed autodegrada) [2]: The expression level of OsTIR1(WT) was enhanced by the addition of an OsTIR1 inhibitor auxinole

Compound: O=C(O)Cc1c[nH]c2ccc(-c3ccccc3)cc12 [5-Ph-IAA, 5-phenyl-indole-3-acetic acid]
DC50 [3]: 0.45 ± 0.01 nM
